Results taken from patent US10106782B2, “High-titer HCV full-length genotype 2B infectious cell culture systems and applications thereof” (Hvidovre Hospital, priority 2013, dated 2018).
Entries after “also recorded” stand apart in the source; their conditions may differ.

What was measured:
[1] = test system: Huh7.5 cells; experiment: Viral passage of recombinant full-length HCV to naive Huh7.5 cells; assay type: cell-based
Procedure: (§1) Transfection and passage of recombinant full-length HCV in Huh7.5 cells. Transfections with RNA transcripts were performed as reported. For viral passage, cell free supernatants were incubated with […] Huh7.5 cells overnight. Cultures were split every 2-3 days and progression of infection was monitored by immunostaining on cells seeded in slides and co-stained with primary antibodies anti-core C7-50 (Enzo Life Sciences) and anti-NS5A 9E108, at dilution 1/25010. Infectivity titers expressed as Log 10 Focus Forming Units (FFU)/mL were determined as described. To improve staining, we used a mixture of anti-core C7- and anti-NS5A 9E10 at dilutions 1/450 and 1/1000, respectively. HCV RNA titers (IU/mL) on passage supernatants with peak infectivity titers were determined as previously described.

[2] = test system: Huh7.5 cells; experiment: Transfection of Huh7.5 cells with RNA transcripts of full-length HCV recombinants; assay type: cell-based; details: for HCV infectivity titers / HCV positive cells detected: after transfection; for spread of infection (≥80% HCV-antigen positive cells): day after transfection
Procedure: as §1

[3] = test system: genotype 2b strain J8 (5th passage J8cc); experiment: Antiviral treatment of HCV infected Huh7.5 cultures, high throughput assay, virus J8; assay type: cell-based, hepatitis C virus; details: for inhibition of virus (concentration-response): J8(2b) in Huh7.5 cells, non-cytotoxic drug concentrations
Procedure: (§2) HCV infected cultures were treated with NS3 Protease, NS5A, and NS5B polymerase inhibitors (purchased from Acme Bioscience) in a high throughput assay. Immunostaining of fixed 96-well plates was performed using anti-core C7- and anti-NS5A 9E10 at dilutions 1/450 and 1/1000, respectively.
(§3) Concentration-response curves and EC50 values were calculated. The non-cytotoxic dose ranges for all drugs were determined with a cytotoxicity assay (CellTiter 96 AQueous One Solution Cell Proliferation Assay, Promega).
(§4) HCV genetic divergence influences the sensitivity to lead direct acting antivirals. Our developed full-length culture systems permit the study of frontline HCV DAAs in the context of the complete HCV life cycle. Thus, we determined the efficacy of DAAs targeting different viral proteins against genotype 1a (strain TN), 2a (strain J6 and recombinant J6core-NS2/JFH18, referred to as JFH1, since it has the JFH1 protease, NS5A and NS5B), and 2b (strains DH8, J8, and DH10). For 2b viruses we used 3rd passage DH8_LSG, 5th passage J8cc, and 3rd passage DH10_LSG (FIGS. 6-10).

[4] = test system: genotype 1a (strain TN) full-length virus; experiment: Antiviral treatment of HCV infected Huh7.5 cultures, high throughput assay, virus TN; assay type: cell-based, hepatitis C virus; details: for inhibition of virus (concentration-response): TN(1a) in Huh7.5 cells, non-cytotoxic drug concentrations; for EC50 / sensitivity of virus, stated in words: TN(1a), numbers only in FIG. 11
Procedure: as §2, §3, §4

[5] = test system: genotype 2b strain DH8 (3rd passage DH8_LSG); experiment: Antiviral treatment of HCV infected Huh7.5 cultures, high throughput assay, virus DH8; assay type: cell-based, hepatitis C virus; details: DH8(2b) in Huh7.5 cells; non-cytotoxic drug concentrations
Procedure: as §2, §3, §4

[6] = test system: 2a recombinant J6core-NS2/JFH1, referred to as JFH1; experiment: Antiviral treatment of HCV infected Huh7.5 cultures, high throughput assay, virus JFH1; assay type: cell-based, hepatitis C virus; details: for inhibition of virus (concentration-response): JFH1(2a) in Huh7.5 cells, non-cytotoxic drug concentrations
Procedure: as §2, §3, §4

[7] = test system: genotype 2b strain DH10 (3rd passage DH10_LSG); experiment: Antiviral treatment of HCV infected Huh7.5 cultures, high throughput assay, virus DH10; assay type: cell-based, hepatitis C virus; details: DH10(2b) in Huh7.5 cells; non-cytotoxic drug concentrations
Procedure: as §2, §3, §4

[8] = test system: genotype 2a (strain J6) full-length virus; experiment: Antiviral treatment of HCV infected Huh7.5 cultures, high throughput assay, virus J6; assay type: cell-based, hepatitis C virus; details: for inhibition of virus (concentration-response): J6(2a) in Huh7.5 cells, non-cytotoxic drug concentrations; for EC50 / sensitivity of virus, stated in words: J6(2a), numbers only in FIG. 11
Procedure: as §2, §3, §4

Row | Compound | HCV infectivity titers [2] | spread of infection (≥80% HCV-antigen positive cells) [2] [days] | inhibition of virus (concentration-response) [4] | inhibition of virus (concentration-response) [5] | inhibition of virus (concentration-response) [6] | inhibition of virus (concentration-response) [3] | inhibition of virus (concentration-response) [7] | inhibition of virus (concentration-response) [8] | also measured
1 | DH8_LSG/L884P/V1951A/I2440T/L3021F: efficient full-length infectious DH8 recombinant, SEQ ID NO 7, KF420337 | 3.8 Log 10 FFU/mL | 6 | – | – | – | – | – | – | HCV infectivity titers ([1]; 2nd passage): 3.9 Log 10 FFU/mL
2 | COc1ccc2c(O[C@@H]3C[C@H]4C(=O)N[C@]5(C(=O)NS(=O)(=O)C6CC6)C[C@H]5/C=C\CCCCN(C)C(=O)[C@@H]4C3)cc(-c3nc(C(C)C)cs3)nc2c1C [Simeprevir] | – | – | – | – | – | – | – | – | EC50 / sensitivity of virus, stated in words ([3]; J8(2b), numbers only in FIG. 11): lower EC50
3 | CC(C)(C)C#Cc1cc(N(C(=O)[C@H]2CC[C@H](C)CC2)[C@H]2CC[C@H](O)CC2)c(C(=O)O)s1 [VX-222] | – | – | inhibited TN(1a) in a dose dependent manner | no or very limited inhibition; also recorded: not inhibited | no or very limited inhibition; also recorded: not inhibited | no or very limited inhibition; also recorded: not inhibited | no or very limited inhibition; also recorded: not inhibited | no or very limited inhibition; also recorded: not inhibited | EC50 / sensitivity of virus, stated in words [4]: most potent inhibitor
4 | DH8_LSG/L758S/A1790T/V1951A/I2439T: DH8 full-length recombinant named DH8cc, SEQ ID NO 8, KF420336 | 4.1 Log 10 FFU/mL | 6 | – | – | – | – | – | – | HCV infectivity titers ([1]; 1st passage): 4.4 Log 10 FFU/mL; HCV infectivity titers ([1]; 2nd passage): 4.3 Log 10 FFU/mL
5 | CC(C)OC(=O)[C@H](C)N[P@](=O)(OC[C@H]1O[C@@H](n2ccc(=O)[nH]c2=O)[C@](C)(F)[C@@H]1O)Oc1ccccc1 [Sofosbuvir] | – | – | inhibited 1a, 2a, and 2b viruses in a dose-dependent manner | inhibited 1a, 2a, and 2b viruses in a dose-dependent manner | inhibited 1a, 2a, and 2b viruses in a dose-dependent manner | inhibited 1a, 2a, and 2b viruses in a dose-dependent manner | inhibited 1a, 2a, and 2b viruses in a dose-dependent manner | inhibited 1a, 2a, and 2b viruses in a dose-dependent manner | EC50 / sensitivity of virus, stated in words [8]: most sensitive virus
6 | DH8CF: full-length HCV genotype 2b consensus clone of strain DH8, SEQ ID NO 1, KF420335 | – | – | – | – | – | – | – | – | HCV positive cells detected [2]: No HCV positive cells were detected
7 | DH8_LSG: DH8CF containing LSG mutations F1468L/A1676S/D3001G, SEQ ID NO:2 | 3.1-3.9 Log 10 FFU/mL | 36 to 53 | – | – | – | – | – | – | HCV infectivity titers ([1]; 1st passage): 3.1-4.2 Log 10 FFU/mL; spread of infection ([1]; 1st viral passage): 5 to 8 days; HCV infectivity titers ([1]; 3rd passage of transfection 1 culture A): 4.7 Log 10 FFU/mL; HCV positive cells detected [2]: ≥ 1 days
8 | C=C[C@@H]1C[C@]1(NC(=O)[C@@H]1C[C@@H]2CN1C(=O)[C@H](C(C)(C)C)NC(=O)O[C@@H]1C[C@H]1CCCCCc1nc3ccc(OC)cc3nc1O2)C(=O)NS(=O)(=O)C1CC1 [MK-5172] | – | – | – | – | – | – | – | – | EC50 / sensitivity of virus, stated in words [4]: most sensitive viruses; EC50 / sensitivity of virus, stated in words ([6]; JFH1(2a), numbers only in FIG. 11): most sensitive viruses
9 | J8_LSG/L758S/A1790T/V1951A/I2440T: efficient J8 virus with authentic NS3 protease, SEQ ID NO 15, KF420339 | 3.8 Log 10 FFU/mL | 5 | – | – | – | – | – | – | –
10 | Cn1c(C2(NC(=O)c3ccc4c(C5CCCC5)c(-c5ncc(Br)cn5)n(C)c4c3)CCC2)nc2ccc(/C=C/C(=O)O)cc21 [BI207127] | – | – | inhibit all viruses in a dose dependent manner | inhibit all viruses in a dose dependent manner | inhibit all viruses in a dose dependent manner | inhibit all viruses in a dose dependent manner | inhibit all viruses in a dose dependent manner | inhibit all viruses in a dose dependent manner | EC50 / sensitivity of virus, stated in words [4]: most sensitive virus
11 | CCc1cc(CC[C@]2(C3CCCC3)CC(O)=C(Cc3nc4nc(C)cc(C)n4n3)C(=O)O2)cc(CC)n1 [Filibuvir] | – | – | inhibited TN(1a) in a dose dependent manner | no or very limited inhibition; also recorded: not inhibited | no or very limited inhibition; also recorded: not inhibited | no or very limited inhibition; also recorded: not inhibited | no or very limited inhibition; also recorded: not inhibited | no or very limited inhibition; also recorded: not inhibited | –
12 | J8cc/M292L/L612M/G1154A/N1217Y/Q1763R/I2440T: J8 cell culture, high titer recombinant, SEQ ID NO 14, KF420338 | 4.7 Log 10 FFU/mL | 3 | – | – | – | – | – | – | –
13 | CC(C)C(=O)OC[C@H]1O[C@@H](n2ccc(N)nc2=O)[C@](C)(F)[C@@H]1OC(=O)C(C)C [Mericitabine] | – | – | inhibited 1a, 2a, and 2b viruses in a dose-dependent manner | inhibited 1a, 2a, and 2b viruses in a dose-dependent manner | inhibited 1a, 2a, and 2b viruses in a dose-dependent manner | inhibited 1a, 2a, and 2b viruses in a dose-dependent manner | inhibited 1a, 2a, and 2b viruses in a dose-dependent manner | inhibited 1a, 2a, and 2b viruses in a dose-dependent manner | EC50 / sensitivity of virus, stated in words [8]: most sensitive virus
